Tests used:
RORγt = biological target: T1, RORγt (Homo sapiens, UniProt P51449); assay: RORγt cellular reporter gene detection assay; format: cell-based; settings: 24 hrs; for EC50: HEK 293 cells co-transfected with pFN26A-RORγt-LBD and pG14.35, in presence of antagonist Ursolic acid, top concentration 50 μM; for Cellular Reporter Assay Amax: upper activation limit, HEK 293 cells, in presence of antagonist Ursolic acid;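 for Cellular Reporter Assay Amax: Ursolic Acid added as 5 µL of 20 µM medium per well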
T1 construct: The plasmid of pFN26A-RORγt-LBD and pG14.35 (Promega, Cat. No. E1370) were co-transfected into HEK 293 cells; expressed in transfected cells; host or cells: HEK 293 cells (Cat. No. GNHu18)
T1 sequence (P51449 269-508 limits assumed): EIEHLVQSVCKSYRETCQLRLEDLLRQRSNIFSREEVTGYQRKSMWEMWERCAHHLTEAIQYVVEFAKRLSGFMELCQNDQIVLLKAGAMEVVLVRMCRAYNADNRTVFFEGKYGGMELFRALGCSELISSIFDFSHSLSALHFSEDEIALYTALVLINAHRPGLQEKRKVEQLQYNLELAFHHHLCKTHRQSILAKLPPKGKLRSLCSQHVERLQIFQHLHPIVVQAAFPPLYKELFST
Protocol: II. RORγt Cellular Reporter Gene Detection Assay
In this experiment, RORγt Reporter Gene Detection method was used to evaluate the activation and specificity of compounds to RORγt in cells. The plasmid of pFN26A-RORγt-LBD and pG14.35 (Promega, Cat. No. E1370) were co-transfected into HEK 293 cells (Cat. No. GNHu18). The efficacy of compounds was evaluated with the presence of an antagonist Ursolic acid (Selleck, Cat. No. S2370-100 mg). The specific experimental process was as follow: • 1. The plasmids-co-transfected cells were inoculated into a 96-well plate (Corning, Cat. No 3610) in a fresh DMEM medium (Gibco, cat. No. 1773536) containing 10% fetal bovine serum (Gibco, Cat. No. 10099-141) at 30000 cells/40 μL/well; • 2. 5 μL of medium containing 20 μM Ursolic acid was added thereto; • 3. The dose effect was evaluated by a 4-fold dilution of the test compound starting from 50 μM; • 4. 5 μL of medium containing a compound concentration of 10-fold of its final test concentration was added; • 5. After the cells were incubated at 37° C. and 5% CO2 for 24 hrs, 50 μL of detection reagent was added to detect firefly fluorescence using PerkinElmerEnVision, and 50 μL of the second detection reagent was added to detect sea kidney fluorescence; • 6. A four-parameter curve simulated in GraphPad Prism was used to determine the concentration for 50% activation (EC50) and the upper activation limit (Amax) for each compound.

RORγt-LBD = biological target: T2, RORγt-LBD (Homo sapiens, UniProt P51449); assay: Time-resolved fluorescence resonance energy-transfer assay (TR-FRET), co-activator peptide recruitment; format: biochemical; design: TR-FRET Biochemical Amax: unit not given here; settings: for EC50: His-RORγt-LBD 30 nM, SRC peptide 500 nM, agonistic activity, averages of one or more measurements, read-out: TR-FRET Biochemical EC50/; for TR-FRET Biochemical Amax: upper activation limit, His-RORγt-LBD, SRC peptide
T2 sequence (P51449 269-508 limits assumed): T1 sequence (P51449 269-508 limits assumed)
Text: I. Time-Resolved Fluorescence Resonance Energy-Transfer Assay (TR-FRET)
This experiment was a screening experiment for RORγt nuclear receptor agonists based on TR-FRET technology. When His-labeled RORγt-LBD receptor binds to receptor agonists, it may increase the recruitment of biotin-labeled co-activator peptides. Europium-His-RORγt-LBD is indirectly labeled by donor (Eu) by binding to Eu-anti-His antibody. Once Eu is activated by an energy source (such as flashlight or laser), the energy will be transferred to the co-activator indirectly labeled by allophycocyanin by binding of allophycocyanin-streptavidin and biotin-labeled co-activator. • 1. 10× buffer (500 mM Tris-HCl, 500 mM KCl, and 10 mM Na-EDTA) was prepared, pH value was adjusted to 7.0. The buffer was stored at 4° C. for later use and was restored to normal temperature before experiment; • 2. The 10× buffer was diluted to 1× with pure water. Final concentration of 0.01% Triton X-100 and 1 mM DTT (dithiothreitol) were added to prepare the assay buffer; • 3. DMSO was used to prepare 1000× compound stock solution. The compound solution was serial-diluted in 5-fold for 7 concentrations from the top concentration of 1000 nM/10000 nM. Then the 10× compound solution was prepared with assay buffer. An amount of 2 μL was aliquoted into the 20 μL system; • 4. 5×RORγt-LBD protein solution was unfreezed, and a solution of 5× concentration was prepared with assay buffer to obtain a final concentration of 30 nM. The whole operation was carried out on ice; • 5. 5×SRC peptide was unfreezed, and a solution of 5× concentration was prepared with assay buffer to obtain a final concentration of 500 nM. The whole operation was carried out on ice; • 6. 4 μL/well of RORγt-LBD receptor was added into the testing wells of 384-well plate, and the same amount of assay buffer was added to the control wells of non-RORγt-LBD group; • 7. 2 μL of compound was added into each well of 384-well plate; • 8. 4 μL of SRC peptide was added into each well of 384-well plate; • 9. 2× Eu-anti-6× His/APC-Streptavidin was diluted with Lance detection buffer to a final concentration of 0.25 nM and 5 nM, respectively, and then 10 μL of 2× Eu-anti-6× His/APC-Streptavidin was added into each well of 384-well plate; • 10. The mixed solution was incubated at 4° C. overnight; • 11. On the morning of the next day, the 384-well plate was incubated at room temperature for 1 hr. Then the corresponding signal values were read with PerkinElmer EnVision at a wavelength of 665/615 […]. The agonistic activity of the corresponding compound was calculated with Graphpad Prism 7.0 software.

SMILES | EC50 (RORγt) | Cellular Reporter Assay Amax (RORγt) | EC50 (RORγt-LBD) | TR-FRET Biochemical Amax (RORγt-LBD)
CN1CCN(S(=O)(=O)c2cccc(C(F)(F)F)c2)c2cc(-c3cc(F)cc(OC(F)F)c3)ccc21 [Example 1, 6-(3-(difluoromethoxy)-5-fluorophenyl)-1-methyl-4-((3-(trifluoromethyl)phenyl)sulfonyl)-1,2,3,4-tetrahydroquinoxaline] | 0.518 µM | 3.3 | 0.0184 µM | 1.61
O=S(=O)(c1cccc(C(F)(F)F)c1)N1CCNc2ccc(-c3cc(F)cc(OC(F)F)c3)cc21 [Example 2, 7-(3-(difluoromethoxy)-5-fluorophenyl)-1-((3-(trifluoromethyl)phenyl)sulfonyl)-1,2,3,4-tetrahydroquinoxaline] | 0.163 µM | 3.1 | 0.0181 µM | 1.85
O=S(=O)(c1cccc(C(F)(F)F)c1)N1C[C@@H]2CCCN2c2ccc(-c3cc(F)cc(OC(F)F)c3)cc21 [Example 4, (S)-7-(3-(difluoromethoxy)-5-fluorophenyl)-5-((3-(trifluoromethyl)phenyl)sulfonyl)-1,2,3,3a,4,5-hexa-hydropyrrolo[1,2-a]qui-noxaline] | 3.55 µM | 4.9 | 0.0284 µM | 1.25
CS(=O)(=O)N1CCN2c3ccc(-c4cc(F)cc(OC(F)F)c4)cc3N(S(=O)(=O)c3cccc(C(F)(F)F)c3)C[C@@H]2C1 [Example 8, (S)-8-(3-(difluoromethoxy)-5-fluorophenyl)-3-(methylsulfonyl)-6-((3-(trifluoromethyl)phenyl)sulfonyl)-2,3,4,4a,5,6-hexahydro-1H-pyrazino[1,2-a]quinoxaline] | 0.0904 µM | 5.5 | 0.0133 µM | 1.22
O=S(=O)(c1cccc(C(F)(F)F)c1)N1C[C@@H]2CNCCN2c2ccc(-c3cc(F)cc(OC(F)F)c3)cc21 [Example 12, (S)-8-(3-(difluoromethoxy)-5-fluorophenyl)-6-((3-(trifluoromethyl)phenyl)sulfonyl)-2,3,4,4a,5,6-hexa-hydro-1H-pyrazino[1,2-a]quinoxaline] | 2.39 µM | 4.3 | 0.136 µM | 0.67
CC1(C)C=C(c2ccc3c(c2)N(S(=O)(=O)c2cccc(C(F)(F)F)c2)C[C@@H]2CN(C[C@@H](O)CO)CCN32)CC(C)(C)O1 [Example 41, (R)-3-((S)-8-(2,2,6,6-tetrameth-yl-3,6-dihydro-2H-pyran-4-yl)-6-((3-(trifluoromethyl)phe-nyl)sulfonyl)-1,2,4,4a,5,6-hexa-hydro-3H-pyrazino[1,2-a]qui-noxalin-3-yl)propane-1,2-diol] |  |  | 0.00673 µM | 1.01

The next lines start with the values.

EC50 (RORγt) | Cellular Reporter Assay Amax (RORγt) | EC50 (RORγt-LBD) | TR-FRET Biochemical Amax (RORγt-LBD) | SMILES
1.74 µM | 4.4 | 0.0291 µM | 1.20 | C/C(=C\c1ccc2c(c1)N(S(=O)(=O)c1cccc(C(F)(F)F)c1)C[C@H](CCC(=O)O)N2C)c1c(F)cccc1Cl [Example 3, (S,E)-3-(6-(2-(2-chloro-6-fluorophenyl)prop-1-en-1-yl)-1-methyl-4-((3-(trifluoromethyl)phenyl)sulfonyl)-1,2,3,4-tetrahydroquinoxalin-2-yl)propanoic acid]
1.03 µM | 5.0 | 0.00968 µM | 1.39 | CN1c2ccc(-c3cc(F)cc(OC(F)F)c3)cc2N(S(=O)(=O)c2cccc(C(F)(F)F)c2)C[C@@H]1CCC(=O)O [Example 5, (S)-3-(6-(3-(difluorome-thoxy)-5-fluorophenyl)-1-methyl-4-((3-(trifluorometh-yl)phenyl)sulfonyl)-1,2,3,4-tetrahydroquinoxalin-2-yl)propanoic acid]
0.528 µM | 4.2 | 0.0161 µM | 1.54 | CN1c2ccc(/C=C/c3c(Cl)cccc3C(F)(F)F)cc2N(S(=O)(=O)c2cccc(C(F)(F)F)c2)C[C@@H]1CCC(=O)O [Example 6, (S,E)-3-(6-(2-chloro-6-(tri-fluoromethyl)styryl)-1-meth-yl-4-((3-(trifluoromethyl)phenyl)sulfonyl)-1,2,3,4-tetrahydroquinoxalin-2-yl) propanoic acid]
0.145 µM | 3.7 | 0.0175 µM | 1.45 | CC(=O)N1CCN2c3ccc(-c4cc(F)cc(OC(F)F)c4)cc3N(S(=O)(=O)c3cccc(C(F)(F)F)c3)C[C@@H]2C1 [Example 7, (S)-1-(8-(3-(difluoromethoxy)-5-fluorophenyl)-6-((3-(trifluoromethyl)phenyl)sulfonyl)-1,2,4,4a,5,6-hexahydro-3H-pyrazino[1,2-a]quinoxalin-3-yl)ethan-1-one]
0.29 µM | 3.5 | 0.0116 µM | 0.63 | O=C(O)CN1CCN2c3ccc(-c4cc(F)cc(OC(F)F)c4)cc3N(S(=O)(=O)c3cccc(C(F)(F)F)c3)C[C@@H]2C1 [Example 9, (S)-2-(8-(3-(difluoromethoxy)-5-fluorophenyl)-6-((3-(trifluoromethyl)phenyl)sulfonyl)-1,2,4,4a,5,6-hexahydro-3H-pyrazino[1,2-a]quinoxalin-3-yl)acetic acid]
0.578 µM | 2.8 | 0.0136 µM | 0.81 | C/C(=C\c1ccc2c(c1)N(S(=O)(=O)c1cccc(C(F)(F)F)c1)C[C@@H]1CNCCN21)c1c(F)cccc1Cl [Example 10, (S,E)-8-(2-(2-chloro-6-fluorophenyl)prop-1-en-1-yl)-6-((3-(trifluoromethyl)phenyl)sulfonyl)-2,3,4,4a,5,6-hexahydro-1H-pyrazino[1,2-a]quinoxaline]
0.429 µM | 3.2 | 0.0217 µM | 0.82 | O=S(=O)(c1cccc(C(F)(F)F)c1)N1C[C@@H]2CNCCN2c2ccc(/C=C/c3c(Cl)cccc3C(F)(F)F)cc21 [Example 11, (S,E)-8-(2-chloro-6-(tri-fluoromethyl)styryl)-6-((3-(trifluoromethyl)phenyl)sulfonyl)-2,3,4,4a,5,6-hexa-hydro-1H-pyrazino[1,2-a]quinoxaline]

Reference: patent US20220009894A1, “1,2,3,4-TETRAHYDROQUINOXALINE DERIVATIVE, PREPARATION METHOD THEREFOR AND APPLICATION THEREOF” (Abbisko Therapeutics Co., Ltd., priority 2019, published 2022)
